Measured values reported in patent US20250011686A1, “BIODEGRADABLE CHELATING AGENTS AND METHODS FOR FABRIC CARE” (The Procter & Gamble Company, priority 2023, published 2025).

How the values were obtained:
Type in all cases: physicochemical
[1] = Iron binding efficiency, logK(β110) (Table 1); details: one metal, one ligand, no protons
Excerpt: (§1) The binding efficiencies may be expressed as a binding constant. A binding constant (also called formation constant or stability constant) is an equilibrium constant for the formation of a complex in solution. It is a measure of the strength of the interaction between the reagents that come together to form the complex. As an example, various stains may comprise catechins as shown in Formula 13. In Table 1, the reaction between metals and ligands is described in terms of log K(β110). In this context, K, is the equilibrium constant for the reaction between ligands and metals. The higher K, the more metal is bound. This is illustrated in the following example. β, represents the binding efficiency and receives some subscripts (βmlh) to indicate how many metals (m), ligands (l), and protons (h) respectively are involved.

[2] = Calcium binding efficiency, logK(β110) (Table 1); details: one metal, one ligand, no protons
Excerpt: as §1

[3] = pKa of chelating agent (Table 1); details: successive pKa values; for catechin (A)/(B)
Excerpt: Chelation is a type of bonding of ions and molecules to metal ions. It involves the formation or presence of two or more separate coordinate bonds between a ligand and a metal atom. Without being bound by theory, the stain removal effectiveness of a composition comprising one or more chelating agents may depend at least in part on the ability of the chelating agent(s) to bind to iron, which may be present in some stains, such as fruit or beverage stains. Several factors may impact a chelating agent's ability to bind to iron. These factors may include the pKa of the chelating agent compared to the wash pH, and the affinity of the chelating agent to bind with other metals, materials, or compositions in the wash.
Various embodiments may provide or employ a composition that comprises one or more chelating agents having a pKa that is less than the wash pH.

Fe (III) logK(β110) (iron binding efficiency) ([1]; listed as catechins) | Ca^2+ logK(β110) (calcium binding efficiency) ([2]; listed as catechins) | Structure (SMILES) | Fe (III) logK(β110) (iron binding efficiency) [1] | Ca^2+ logK(β110) (calcium binding efficiency) [2] | pKa [3]
about 19.2 | about 3.5 | Oc1cc(O)c2c(c1)OC(c1ccc(O)c(O)c1)C(O)C2 (stereo not shown) [Catechin] | 19.2 | 3.5 | 8.7
 |  | CC(O)(P(=O)(O)O)P(=O)(O)O [HEDP, 1-Hydroxyethylidene-1,1-diphosphonic acid, reference compound] | 14.1 | 6.8 | 
 |  | CC(C)c1cccc(=O)c(O)c1 [Hinokitiol, 2-Hydroxy-6-(propan-2-yl)cyclohepta-2,4,6-trien-1-one] | 12.9 | 2.2 | ~7
 |  | O=c1cccccc1O [Tropolone, 2-Hydroxycyclohepta-2,4,6-trien-1-one] | 10.5 | 3.1 | 6.7
